Experimental data published in patent US20120316249A1, “LYCOPENE FOR THE TREATMENT FOR METABOLIC DYSFUNCTION” (Cammedica limited, priority 2006, published 2012).
“And” between values parts separate entries of the source, which are not always exact repeats. Equal values may be shown once.

Assay: Pilot clinical trial of Lipitor-Liprimar: serum lipids in human volunteers
Format: in vivo
Design: TG / CH-HDL / CH, mean / TG, mean / CH-LDL, mean / CH-HDL, mean: unit not given here
Procedure: Ten volunteers, 5 males and 5 females, aged 45-55 years old, were selected for this pilot clinical trial. 40 mg of Lipitor-Liprimar was given orally, with food, to each patient daily for two months.
Serum samples were collected from the blood of the patients before the treatment and after two months of treatment.

[1] = Lipitor 40 mg daily, two months
[2] = individual patients, Lipitor 40 mg daily, orally, after 2 months of treatment
[3] = mean of 10 patients, Lipitor 40 mg daily, orally, after 2 months of treatment

## CC(C)c1c(C(=O)Nc2ccccc2)c(-c2ccccc2)c(-c2ccc(F)cc2)n1CC[C@@H](O)C[C@@H](O)CC(=O)O [Lipitor, Atorvastatin]
[1]
  total cholesterol (CH) reduction: 17%
  triglyceride (TG) reduction: 22%
Lipitor-Liprimar 40 mg daily, two months
  CH-LDL reduction: 35%
[2]
  CH: 200 mg/dL (2×) and 140 mg/dL and 176 mg/dL and 188 mg/dL and 197 mg/dL and 170 mg/dL and 184 mg/dL and 209 mg/dL and 154 mg/dL
  CH-HDL: 38 and 42 (3×) and 47 (2×) and 39 and 43 (2×) and 49
  CH-LDL: 120 mg/dL (2×) and 145 mg/dL and 110 mg/dL (2×) and 146 mg/dL and 140 mg/dL and 100 mg/dL and 130 mg/dL (2×)
  TG: 120 and 136 and 99 and 98 and 87 and 90 and 133 and 105 and 172 and 96
[3]
  CH, mean: 182
  CH-HDL, mean: 43
  CH-LDL, mean: 100
  TG, mean: 113
